Measurements reported in patent US20250339391A1, “METHODS FOR EFFECTIVE MANAGEMENT OF PAIN” (South Rampart Pharma, Inc., priority 2024, published 2025).
Entries after “also recorded” stand apart in the source; their conditions may differ.

Key:
[1] = test system: midbrain periaqueductal gray (PAG) cells; test: Single-cell RNA sequencing of midbrain PAG in CFA-induced chronic inflammatory pain model; assay type: in vivo, rat; conditions: CFA rats; for expression of FAAH, CORO2A and RPL7L1 (scRNAseq): 100 mg/kg, 1 h
Procedure: Subsequently, we endeavored to explore the single-cell transcriptome of the eVF rat mid-brain PAG region to further define the mechanisms of action (MOA) of chronic inflammatory pain and, ultimately, SRP-001- and ApAP-mediated pain modulation. Left hind paws of Sprague Dawley rats were injected with 150 μl of 50% complete Freund's adjuvant (CFA), freshly diluted with sterile saline on the day of administration, to induce conspicuous long-standing inflammatory pain in the rats' hind paws, along with mechanical hyperalgesia tested using eVF. […].
Single-cell (scRNA) RNA sequencing. For cell nuclei isolation from the midbrain PAG, they were flash-frozen, dissected (by a cryotome), minced into small pieces, homogenized, filtered through 70 strainer and centrifuged. ReadiDrop 7-AAD cell viability dye (Bio-Rad) added, and flow sorted the live ([…]) nuclei in a BioRad Cell Sorter S3e using purity mode. Nuclei were counted using Nexcelom automated Cellometer with acridine orange/propidium iodide (AOPI) stain, and the Nuclei Stock Concentration used so that 10,000 nuclei could be targeted for each sample. […] Post library construction QC was performed using Agilent Bioanalyzer 2100 on High Sensitivity DNA chips, and after verification of sample traces, each library normalized based on the average fragment size, and the concentration determined using Qubit 4.0 fluorometer (Thermo Fisher Scientific). […]
Data processing. […] Read alignment, filtering, barcode counting, peak calling, and counting of both ATAC and GEX molecules were performed using cellranger-arc count. […] Only confidently mapped reads with valid barcodes, unique molecular identifiers (UMIs), and non-PCR duplicated were retained. The overall sequencing quality was evaluated by looking at the summary metrics of the web_summary.html file generated for each sample. […]

[2] = test system: AM404; test: LC-MS/MS quantification of AM404 production in periaqueductal gray; assay type: in vivo; conditions: rat, 32 mg/kg IP, 30 min, with CFA or vehicle
Procedure: Deuterated compound D10-SRP-001 was synthesized by Olon Ricerca Bioscience (Concord, OH), and purity was determined to be >99.9% by HPLC. This was used as pure analytical standard for detection of SRP-001 using an LC-MS/MS method. Similarly, pure analytical standard of AM404 (10 ng/mL) obtained from Cayman Chemical (Ann Arbor, MI) was used to characterize the full fragmentation pattern of AM404. […] Thirty min post-injection, the animals were sacrificed (same as in the CFA/von Frey model), their brains harvested, and the midbrain periaqueductal gray (PAG) region excised. SRP-001 or AM404 were extracted from the PAG using a liquid-liquid extraction method using 1:1 MeOH:H2O for LC-MS/MS and were loaded onto a liquid chromatography-tandem mass spectrophotometer for analysis. The mass spectrophotometer was operated in multiple reaction monitoring (MRM) mode using positive ion electrospray. D10-SRP-001 was detected by monitoring the m/z transition 416→186. AM404 was detected by monitoring the m/z transition 396→287.

[3] = test system: NAPQI; test: LC-MS/MS identification of serum NAPQI and novel benzoquinoimine; assay type: in vivo, mouse; conditions: CD-1 mice, 600 mg/kg, IP or per os
Procedure: […] (NAPQI) was extracted from the serum by adding 3 volumes of ethyl-acetate to 1 volume of serum and storing them on ice for 30 min, followed by centrifugation at 3000 g for 30 min. Afterward, the supernatant was transferred into mass spectrometry vials and dried under N2 gas. The serum was then washed with another 3 volumes of ethyl-acetate, and the supernatant was added back to the same mass spectrometry vial, followed by evaporation under a stream of N2 gas. The sample was re-suspended with 50 μl of 1:1 MeOH:H2O for LC-MS/MS experimentation. The mass spectrophotometer was operated in multiple reaction monitoring (MRM) mode using positive ion electrospray. NAPQI was detected by monitoring the m/z transition 150.3→108.1. Pure NAPQI analytical standard (10 ng/mL) obtained from Cayman Chemical (Ann Arbor, MI) was used to characterize the full fragmentation pattern of NAPQI and determine the likely fragments.

Row | Compound | expression of FAAH, CORO2A and RPL7L1 (scRNAseq) [1] | regulation of FAAH signaling genes ([1]; IPA analysis) | AM404 production in the PAG ([2]; 32 mg/kg) | serum NAPQI formation [3] | AM404 production in the PAG [2]
1 | CCN(CC)C(=O)c1ccccc1S(=O)(=O)NCC(=O)Nc1ccc(O)cc1 [SRP-001, N,N-diethyl-2-[[2-(4-hydroxyanilino)-2-oxo-ethyl]sulfamoyl]benzamide] | Downregulation | more significantly regulated by SRP-001 than ApAP | highest AM404 production; also recorded: produces more AM404 than ApAP | lack of formation of the toxic quinonimine metabolite NAPQI; also recorded: lack of production of NAPQI | 
2 | CC(=O)Nc1ccc(O)cc1 [ApAP, acetaminophen] | Downregulation |  |  | a NAPQI peak is seen; also recorded: significantly enhanced | diminished
